The molecules below were run against T1, Human MTHFD2 (Homo sapiens, UniProt P13995) (assay: MTHFD2 Activity Assay (dehydrogenase activity, diaphorase/resazurin coupled fluorescence)). Details: inhibitory activity (IC50 and/or binding constant); 0.2 nM MTHFD2, 11 concentrations.
T1 construct: residues 36-350 in Uniport ID P13995; His6 (N); made in house; host or cells: E. coli
T1 sequence (P13995 36-350): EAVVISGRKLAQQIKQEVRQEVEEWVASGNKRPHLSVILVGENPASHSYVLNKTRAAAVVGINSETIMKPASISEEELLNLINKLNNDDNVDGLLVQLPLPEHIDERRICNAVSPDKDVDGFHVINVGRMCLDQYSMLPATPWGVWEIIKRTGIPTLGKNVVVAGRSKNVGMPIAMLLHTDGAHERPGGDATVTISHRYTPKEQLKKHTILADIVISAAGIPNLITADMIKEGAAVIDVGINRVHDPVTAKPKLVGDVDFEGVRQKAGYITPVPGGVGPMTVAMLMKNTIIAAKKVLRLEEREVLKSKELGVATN
Format: biochemical
Outline: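 Steps: compound + 0.2 nM enzyme, 15 min, pH 8.0 Hepes buffer; add 70 μM CH2-THF, 1 mM NAD+, 100 μM resazurin, diaphorase; 30 min; quench with EDTA; read fluorescence. Data normalized to DMSO (100%) and no-enzyme (0%) wells.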

Row | Structure (SMILES) | IC50 [µM]
1 | CCc1cccc2[nH]c(Cn3c(=O)c4c(nc(Nc5ccncc5)n4C)n(C)c3=O)cc12 [Example 387, 1-((4-ethyl-1H-indol-2-yl)methyl)-3,7-dimethyl-8-(pyridin-4-ylamino)-1H-purine-2,6(3H,7H)-dione] | 0.01 to 1
2 | Cn1c(C(O)c2ccccc2)nc2c1c(=O)n(Cc1cc3c(Cl)cccc3[nH]1)c(=O)n2C (stereo not drawn) [Example 388, 1-((4-chloro-1H-indol-2-yl)methyl)-8-(hydroxy(phenyl)methyl)-3,7-dimethyl-1H-purine-2,6(3H,7H)-dione] | 0.01 to 1
3 | CC(N)c1nc2c(c(=O)n(Cc3cc4c(Cl)cccc4[nH]3)c(=O)n2C)n1C (stereo not drawn) [Example 389, 8-(1-aminoethyl)-1-[(4-chloro-1H-indol-2-yl)methyl]-3,7-dimethyl-purine-2,6-dione] | 0.01 to 1
4 | CC(=O)NS(=O)(=O)c1ccc(Nc2nc3c(c(=O)n(Cc4cc5c(Cl)cccc5[nH]4)c(=O)n3C)n2C)cc1 [Example 390, N-((4-((1-((4-chloro-1H-indol-2-yl)methyl)-3,7-dimethyl-2,6-dioxo-2,3,6,7-tetrahydro-1H-purin-8-yl)amino)phenyl)sulfonyl)acetamide] | 0.01 to 1
5 | Cn1c(C2CCCNC2)nc2c1c(=O)n(Cc1cc3c(Cl)cccc3[nH]1)c(=O)n2C (stereo not drawn) [Example 391, 1-[(4-chloro-1H-indol-2-yl)methyl]-3,7-dimethyl-8-(3-piperidyl)purine-2,6-dione] | 0.01 to 1
6 | Cn1c(Nc2ccc(N3CCNCC3)cn2)nc2c1c(=O)n(Cc1cc3c(Cl)cccc3[nH]1)c(=O)n2C [Example 392, 1-[(4-chloro-1H-indol-2-yl)methyl]-3,7-dimethyl-8-[(5-piperazin-1-yl-2-pyridyl)amino]purine-2,6-dione] | 0.01 to 1
7 | Cn1c(Nc2ccncc2)nc2c1c(=O)n(Cc1cc3ccncc3[nH]1)c(=O)n2C [Example 393, 1-((1H-pyrrolo[2,3-c]pyridin-2-yl)methyl)-3,7-dimethyl-8-(pyridin-4-ylamino)-1H-purine-2,6(3H,7H)-dione] | 5 to 10
8 | Cn1c(=O)c2c(nc(CCN)n2C)n(C)c1=O [Example 394, 8-(2-aminoethyl)-1,3,7-trimethyl-1H-purine-2,6(3H,7H)-dione] | 5 to 10
9 | Cn1c(N[C@@H]2CCC[C@@H]2N)nc2c1c(=O)n(Cc1cc3c(Cl)cccc3[nH]1)c(=O)n2C [Example 395, 8-((1R,2S)-2-aminocyclopentylamino)-1-((4-chloro-1H-indol-2-yl)methyl)-3,7-dimethyl-1H-purine-2,6(3H,7H)-dione] | 1 to 5
10 | Cn1c(Nc2ccc(Cl)c(CCC(=O)O)n2)nc2c1c(=O)n(Cc1cc3c(Cl)cccc3[nH]1)c(=O)n2C [Example 396, 3-(3-chloro-6-(1-((4-chloro-1H-indol-2-yl)methyl)-3,7-dimethyl-2,6-dioxo-2,3,6,7-tetrahydro-1H-purin-8-ylamino)pyridin-2-yl)propanoic acid] | 0.01 to 1
11 | Cn1c(Nc2ccc(-c3nnn[nH]3)cc2)nc2c1c(=O)n(Cc1cc3c(Cl)cccc3[nH]1)c(=O)n2C [Example 397, 8-((4-(1H-tetrazol-5-yl)phenyl)amino)-1-((4-chloro-1H-indol-2-yl)methyl)-3,7-dimethyl-1H-purine-2,6(3H,7H)-dione] | 0.01 to 1
12 | Cn1c(Nc2cccc(-c3ccccc3)n2)nc2c1c(=O)n(Cc1cc3c(Cl)cccc3[nH]1)c(=O)n2C [Example 399, 1-[(4-chloro-1H-indol-2-yl)methyl]-3,7-dimethyl-8-[(6-phenyl-2-pyridyl)amino]purine-2,6-dione] | 1 to 5
13 | Cn1c(Nc2ccc(-c3ccccc3)cn2)nc2c1c(=O)n(Cc1cc3c(Cl)cccc3[nH]1)c(=O)n2C [Example 400, 1-[(4-chloro-1H-indol-2-yl)methyl]-3,7-dimethyl-8-[(5-phenyl-2-pyridyl)amino]purine-2,6-dione] | 1 to 5
14 | Cn1c(Nc2ccncc2)nc2c1c(=O)n(Cc1cc3c(C4CC4)cccc3[nH]1)c(=O)n2C [Example 401, 1-((4-cyclopropyl-1H-indol-2-yl)methyl)-3,7-dimethyl-8-(pyridin-4-ylamino)-1H-purine-2,6(3H,7H)-dione] | 0.01 to 1
15 | Cn1c(Nc2ccncc2)nc2c1c(=O)n(Cc1ccc3c(Cl)cccc3c1)c(=O)n2C [Example 402, 1-((5-chloronaphthalen-2-yl)methyl)-3,7-dimethyl-8-(pyridin-4-ylamino)-1H-purine-2,6(3H,7H)-dione] | 0.01 to 1
16 | Cn1c(N[C@H]2CCC[C@@H]2O)nc2c1c(=O)n(Cc1cc3c(Cl)cccc3[nH]1)c(=O)n2C [Example 403, 1-((4-chloro-1H-indol-2-yl)methyl)-8-((1S,2S)-2-hydroxycyclopentylamino)-3,7-dimethyl-1H-purine-2,6(3H,7H)-dione] | 0.01 to 1
17 | Cn1c(Nc2ccncc2)nc2c1c(=O)n(Cc1cc3c(C(F)(F)F)cccc3[nH]1)c(=O)n2C [Example 404, 3,7-dimethyl-8-(pyridin-4-ylamino)-1-((4-(trifluoromethyl)-1H-indol-2-yl)methyl)-1H-purine-2,6(3H,7H)-dione] | 0.01 to 1
18 | CN(C)C(=O)CCc1nccc(Nc2nc3c(c(=O)n(Cc4cc5c(Cl)cccc5[nH]4)c(=O)n3C)n2C)n1 [Example 405, 3-(4-(1-((4-chloro-1H-indol-2-yl)methyl)-3,7-dimethyl-2,6-dioxo-2,3,6,7-tetrahydro-1H-purin-8-ylamino)pyrimidin-2-yl)-N,N-dimethylpropanamide] | 0.01 to 1
19 | Cn1c(Nc2ccnc(CCC(=O)N3CCCCC3)n2)nc2c1c(=O)n(Cc1cc3c(Cl)cccc3[nH]1)c(=O)n2C [Example 406, 1-((4-chloro-1H-indol-2-yl)methyl)-3,7-dimethyl-8-(2-(3-oxo-3-(piperidin-1-yl)propyl)pyrimidin-4-ylamino)-1H-purine-2,6(3H,7H)-dione] | 0.01 to 1
20 | Cn1c(Nc2ccc(CO)nc2)nc2c1c(=O)n(Cc1cc3c(Cl)cccc3[nH]1)c(=O)n2C [Example 407, 1-((4-chloro-1H-indol-2-yl)methyl)-8-(6-(hydroxymethyl)pyridin-3-ylamino)-3,7-dimethyl-1H-purine-2,6(3H,7H)-dione] | 0.01 to 1
21 | COC(=O)c1ccc(Nc2nc3c(c(=O)n(Cc4cc5c(Cl)cccc5[nH]4)c(=O)n3C)n2C)cn1 [Example 408, Methyl 5-(1-((4-chloro-1H-indol-2-yl)methyl)-3,7-dimethyl-2,6-dioxo-2,3,6,7-tetrahydro-1H-purin-8-ylamino)picolinate] | 0.01 to 1
22 | Cn1c(Nc2ccc(C(N)=O)nc2)nc2c1c(=O)n(Cc1cc3c(Cl)cccc3[nH]1)c(=O)n2C [Example 409, 5-(1-((4-chloro-1H-indol-2-yl)methyl)-3,7-dimethyl-2,6-dioxo-2,3,6,7-tetrahydro-1H-purin-8-ylamino)picolinamide] | 0.01 to 1
23 | Cc1cccc2cc(Cn3c(=O)c4c(nc(Nc5ccncc5)n4C)n(C)c3=O)ccc12 [Example 410, 3,7-dimethyl-1-((5-methylnaphthalen-2-yl)methyl)-8-(pyridin-4-ylamino)-1H-purine-2,6(3H,7H)-dione] | 0.01 to 1
24 | Cn1c(C(N)c2ccccc2)nc2c1c(=O)n(Cc1cc3c(Cl)cccc3[nH]1)c(=O)n2C (stereo not drawn) [Example 411, 8-(amino(phenyl)methyl)-1-((4-chloro-1H-indol-2-yl)methyl)-3,7-dimethyl-1H-purine-2,6(3H,7H)-dione] | 0.01 to 1
25 | Cn1c(Nc2ccnc(CCC(=O)N3CCC3)n2)nc2c1c(=O)n(Cc1cc3c(Cl)cccc3[nH]1)c(=O)n2C [Example 413, 8-(2-(3-(azetidin-1-yl)-3-oxopropyl)pyrimidin-4-ylamino)-1-((4-chloro-1H-indol-2-yl)methyl)-3,7-dimethyl-1H-purine-2,6(3H,7H)-dione] | 0.01 to 1
26 | CN(C(=O)CCc1nccc(Nc2nc3c(c(=O)n(Cc4cc5c(Cl)cccc5[nH]4)c(=O)n3C)n2C)n1)C1CC1 [Example 414, 3-(4-(1-((4-chloro-1H-indol-2-yl)methyl)-3,7-dimethyl-2,6-dioxo-2,3,6,7-tetrahydro-1H-purin-8-ylamino)pyrimidin-2-yl)-N-cyclopropyl-N-methylpropanamide] | 0.01 to 1
27 | CNC(=O)CCc1nccc(Nc2nc3c(c(=O)n(Cc4cc5c(Cl)cccc5[nH]4)c(=O)n3C)n2C)n1 [Example 415, 3-(4-(1-((4-chloro-1H-indol-2-yl)methyl)-3,7-dimethyl-2,6-dioxo-2,3,6,7-tetrahydro-1H-purin-8-ylamino)pyrimidin-2-yl)-N-methylpropanamide] | 0.01 to 1
28 | Cn1c(Nc2ccnc(CCC(=O)N3CCOCC3)n2)nc2c1c(=O)n(Cc1cc3c(Cl)cccc3[nH]1)c(=O)n2C [Example 416, 1-((4-chloro-1H-indol-2-yl)methyl)-3,7-dimethyl-8-((2-(3-morpholino-3-oxopropyl)pyrimidin-4-yl)amino)-3,7-dihydro-1H-purine-2,6-dione] | 0.01 to 1
29 | Cn1c(Nc2ccnc(CCC(=O)N3CCCC3)n2)nc2c1c(=O)n(Cc1cc3c(Cl)cccc3[nH]1)c(=O)n2C [Example 417, 1-((4-chloro-1H-indol-2-yl)methyl)-3,7-dimethyl-8-(2-(3-oxo-3-(pyrrolidin-1-yl)propyl)pyrimidin-4-ylamino)-1H-purine-2,6(3H,7H)-dione] | 0.01 to 1
30 | Cn1c(=O)n(Cc2cc3c(Cl)cccc3[nH]2)c(=O)c2c1nc(NC1CCCC(C(=O)O)C1)n2CCN (stereo not drawn) [Example 418, 3-(7-(2-aminoethyl)-1-((4-chloro-1H-indol-2-yl)methyl)-3-methyl-2,6-dioxo-2,3,6,7-tetrahydro-1H-purin-8-ylamino)cyclohexanecarboxylic acid] | 0.01 to 1

Reference: US12187728B2 (Raze Therapeutics, Inc., priority 2015, dated 2025)
